biological target: T1, apelin receptor (APJ) (Homo sapiens, UniProt P35414); assay: In vitro apelin agonist activity (methods of Giddings et al., Apelin-13 as positive control); type: cell-based; conditions: EC50 (nM) Ave, in vitro apelin agonist activity, methods of Giddings et al., Apelin-13 as positive control
T1 sequence (P35414 1-380): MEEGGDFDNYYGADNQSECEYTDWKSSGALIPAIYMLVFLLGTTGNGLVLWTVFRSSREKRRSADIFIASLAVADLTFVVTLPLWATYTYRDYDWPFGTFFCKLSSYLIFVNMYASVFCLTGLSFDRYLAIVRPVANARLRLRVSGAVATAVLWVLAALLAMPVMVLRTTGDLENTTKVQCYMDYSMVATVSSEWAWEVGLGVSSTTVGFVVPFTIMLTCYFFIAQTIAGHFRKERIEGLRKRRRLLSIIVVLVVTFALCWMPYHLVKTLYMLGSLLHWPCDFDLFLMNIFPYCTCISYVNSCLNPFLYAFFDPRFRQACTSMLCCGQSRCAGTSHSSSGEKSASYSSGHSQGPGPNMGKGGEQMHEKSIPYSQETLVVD
Source text: Characterization of the Apelin Agonist Activity of the Compounds
1:39-47, the contents of which are hereby incorporated by reference in its entirety. Using the methods described in Giddings et al. and Apelin-13 as a positive control.

SMILES | EC50
O=C(C[C@H](CN1CCCC(F)(F)C1)NC(=O)c1cc(-c2ccccc2C(F)(F)F)n(C2CCCC2)n1)NC1CCC1 [compound 524, (3R)-N-cyclobutyl-3-({1-cyclopentyl-5-[2-(trifluoromethyl)phenyl]-1H-pyrazol-3-yl]formamido)-4-(3,3-difluoropiperidin-1-yl)butanamide] | 910 nM

same assay, conditions: in vitro apelin agonist activity, methods of Giddings et al., Apelin-13 as positive control; read-out: EC50 (nM) Ave

SMILES | EC50
O=C(C[C@H](CCN1CCCC1)NC(=O)c1cc(-c2ccccc2C(F)(F)F)n(C2CCCC2)n1)NC1CCC1 [compound 504, (3S)-N-cyclobutyl-3-({1-cyclopentyl-5-[2-(trifluoromethyl)phenyl]-1H-pyrazol-3-yl}formamido)-5-(pyrrolidin-1-yl)pentanamide] | 59 nM
O=C(O)C[C@H](CCN1CCC(F)(F)C1)NC(=O)c1cc(-c2ccccc2C(F)(F)F)n(C2CCCC2)n1 [compound 485, (3S)-3-({1-cyclopentyl-5-[2-(trifluoromethyl)phenyl]-1H-pyrazol-3-yl}formamido)-5-(3,3-difluoropyrrolidin-1-yl)pentanoic acid] | 110 nM
Cc1cccc(C)c1-c1cc(C(=O)N[C@@H](CCN2CCCCC2)CC(=O)NC2CCC2)nn1C1CCCC1 [compound 371, (3S)-N-cyclobutyl-3-{[1-cyclopentyl-5-(2,6-dimethylphenyl)-1H-pyrazol-3-yl]formamido}-5-(piperidin-1-yl)pentanamide] | 3840 nM
CC(F)(F)c1ccccc1-c1cc(C(=O)N[C@@H](CCN2C[C@@H](F)[C@@H](F)C2)CC(=O)O)nn1C1CCCC1 [compound 598, (3S)-3-({1-cyclopentyl-5-[2-(1,1-difluoroethyl)phenyl]-1H-pyrazol-3-yl}formamido)-5-[cis-3,4-difluoropyrrolidin-1-yl]pentanoic acid] | 103 nM
O=C(C[C@H](CCN1CCCCC1)NC(=O)c1cc(-c2ccc(F)cc2OCC(F)(F)F)n(C2CCCC2)n1)NC1CCC1 [compound 366, (3S)-N-cyclobutyl-3-({1-cyclopentyl-5[4-fluoro-2-(2,2,2-trifluoroethoxy)phenyl]-1H-pyrazol-3-yl]formamido)-5-(piperidin-1-yl)pentanamide] | > 10000 nM
O=C(O)C[C@H](CCN1CCCC(F)(F)C1)NC(=O)c1cc(-c2ccccc2C(F)(F)F)n(C2CCOCC2)n1 [compound 553, (3S)-5-(3,3-difluoropiperidin-1-yl)-3-{[1-(oxan-4-yl)-5-[2-(trifluoromethyl)phenyl]-1H-pyrazol-3-yl]formamido}pentanoic acid] | 1480 nM
COc1cccc(OC)c1-c1cc(C(=O)N[C@@H](CCc2ccccc2)Cc2nnn[nH]2)nn1C1CCCC1 [compound 390, 1-cyclopentyl-5-(2,6-dimethoxyphenyl)-N-[(2S)-4-phenyl-1-(1H-1,2,3,4-tetrazol-5-yl)butan-2-yl]-1H-pyrazole-3-carboxamide] | 429 nM
O=C(C[C@H](CCN1CC(F)(F)C1)NC(=O)c1cc(-c2ccccc2C(F)(F)F)n(C2CCCC2)n1)NC1CCC1 [compound 535, (3S)-N-cyclobutyl-3-({1-cyclopentyl-5-[2-(trifluoromethyl)phenyl]-1H-pyrazol-3-yl}formamido)-5-(3,3-difluoroazetidin-1-yl)pentanamide] | 32 nM
CC(F)(F)c1ccccc1-c1cc(C(=O)N[C@@H](CCN2CC(F)(F)C2)CC(=O)O)nn1C1CCCC1 [compound 589] | 171 nM
COc1cccc(OC)c1-c1cc(C(=O)N[C@@H](CC2CCC2)C(=O)NC2CCC2)nn1C1CCCC1 [compound 377, (2S)-N,3-dicyclobutyl-2-{[1-cyclopentyl-5-(2,6-dimethoxyphenyl)-1H-pyrazol-3-yl]formamido}propanamide] | > 10000 nM
COc1cccc(OC)c1-c1cc(C(=O)N[C@@H](CCN2CCCCC2)CC(=O)Nc2nccs2)nn1C1CCCC1 [compound 338, (3S)-3-{[1-cyclopentyl-5-(2,6-dimethoxyphenyl)-1H-pyrazol-3-yl]formamido}-5-(piperidin-1-yl)-N-(1,3-thiazol-2-yl)pentanamide] | 12 nM
CN(C(=O)C[C@H](CCN1CCCC(F)(F)C1)NC(=O)c1cc(-c2ccccc2Cl)n(C2CCCC2)n1)c1ncco1 [compound 452, (3S)-3-{[5-(2-chlorophenyl)-1-cyclopentyl-1H-pyrazol-3-yl]formamido}-5-(3,3-difluoropiperidin-1-yl)-N-methyl-N-(1,3-oxazol-2-yl)pentanamide] | 70 nM
COc1cccc(OC)c1-c1cc(C(=O)N[C@H](CC(=O)O)Cc2ccccc2)nn1CC(C)C [compound 297, (3S)-3-{[5-(2,6-dimethoxyphenyl)-1-(2-methylpropyl)-1H-pyrazol-3-yl]formamido}-4-phenylbutanoic acid] | > 10000 nM
CN1CC(NC(=O)C[C@H](CCc2ccc(F)cc2)NC(=O)c2cc(-c3ccccc3C(F)(F)F)n(C3CCCC3)n2)C1 [compound 482, (3S)-3-({1-cyclopentyl-5-[2-(trifluoromethyl)phenyl]-1H-pyrazol-3-yl}formamido)-5-(4-fluorophenyl)-N-(1-methylazetidin-3-yl)pentanamide] | 474 nM
O=C(C[C@H](CCN1CCCC(F)(F)C1)NC(=O)c1cc(-c2cnccc2Cl)n(C2CCCC2)n1)NC1CCC1 [compound 466, (3S)-3-{[5-(4-chloropyridin-3-yl)-1-cyclopentyl-1H-pyrazol-3-yl]formamido}-N-cyclobutyl-5-(3,3-difluoropiperidin-1-yl)pentanamide] | 1220 nM
COc1cccc(OC)c1-c1cc(C(=O)N[C@@H](CCc2ccc(F)cc2)CC(=O)NC2CCC2)nn1C1CCCC1 [compound 416, (3S)-N-cyclobutyl-3-{[1-cyclopentyl-5-(2,6-dimethoxyphenyl)-1H-pyrazol-3-yl]formamido}-5-(4-fluorophenyl)pentanamide] | 606 nM
O=C(O)C[C@@H](NC(=O)c1cc(-c2ccccc2C(F)(F)F)n(C2CCCC2)n1)C(=O)NC1CCCCC1 [compound 544, (3R)-3-(cyclohexylcarbamoyl)-3-({1-cyclopentyl-5-[2-(trifluoromethyl)phenyl]-1H-pyrazol-3-yl]formamido)propanoic acid] | 205 nM
O=C(N[C@@H]1CC(=O)N(c2ccc(F)cc2)C1=O)c1cc(-c2ccccc2C(F)(F)F)n(C2CCCC2)n1 [compound 563, 1-cyclopentyl-N-[(3R)-1-(4-fluorophenyl)-2,5-dioxopyrrolidin-3-yl]-5-[2-(trifluoromethyl)phenyl]-1H-pyrazole-3-carboxamide] | > 10000 nM
COc1cccc(OC)c1-c1cc(C(=O)N[C@@H](/C=C/c2ccncc2)CC(=O)NC2CCC2)nn1C1CCCC1 [compound 419, (3R,4E)-N-cyclobutyl-3-{[1-cyclopentyl-5-(2,6-dimethoxyphenyl)-1H-pyrazol-3-yl]formamido}-5-(pyridin-4-yl)pent-4-enamide] | > 10000 nM
Cc1cnc(NC(=O)C[C@H](CCN2CCC(F)(F)CC2)NC(=O)c2cc(-c3ccccc3C(F)(F)F)n(C3CCCC3)n2)s1 [compound 436, (3S)-3-({1-cyclopentyl-5-[2-(trifluoromethyl)phenyl]-1H-pyrazol-3-yl]formamido)-5-(4,4-difluoropiperidin-1-yl)-N-(5-methyl-1,3-thiazol-2-yl)pentanamide] | 58 nM
O=C(C[C@H](CCN1CCC(F)(F)CC1)NC(=O)c1cc(-c2ccccc2C(F)(F)F)n(C2CCCC2)n1)NCc1ccccc1 [compound 439, (3S)-N-benzyl-3-({1-cyclopentyl-5-[2-(trifluoromethyl)phenyl]-1H-pyrazol-3-yl}formamido)-5-(4,4-difluoropiperidin-1-yl)pentanamide] | 920 nM
O=C(O)C[C@H](CCN1CC(C(F)(F)F)C1)NC(=O)c1cc(-c2ccccc2C(F)(F)F)n(C2CCCC2)n1 [compound 601, (3S)-3-({1-cyclopentyl-5-[2-(trifluoromethyl)phenyl]-1H-pyrazol-3-yl]formamido)-543-(trifluoromethypazetidin-1-yl]pentanoic acid] | 128 nM
COc1cccc(OC)c1-c1cc(C(=O)N[C@@H](CCN2CCN(C)CC2)CC(=O)O)nn1C1CCCC1 [compound 308, (3S)-3-{[1-cyclopentyl-5-(2,6-dimethoxyphenyl)-1H-pyrazol-3-yl]formamido}-5-(4-methylpiperazin-1-yl)pentanoic acid] | > 10000 nM
O=C(C[C@H](CCN1CCCC(F)(F)C1)NC(=O)c1cc(-c2ccccc2Cl)n(C2CCCC2)n1)Nc1nccs1 [compound 429, (3S)-3-{[5-(2-chlorophenyl)-1-cyclopentyl-1H-pyrazol-3-yl]formamido}-5-(3,3-difluoropiperidin-1-yl)-N-(1,3-thiazol-2-yl)pentanamide] | 6.1 nM
O=C(C[C@H](CCN1CC2CCC1CC2)NC(=O)c1cc(-c2ccccc2C(F)(F)F)n(C2CCCC2)n1)NC1CCC1 [compound 521] | 100 nM
O=C(N[C@@H](CCN1C[C@H](F)[C@@H](F)C1)Cc1nnn[nH]1)c1cc(-c2ccccc2C(F)(F)F)n(C2CCCC2)n1 [compound 630] | 24 nM
CC(C)c1ccccc1-c1cc(C(=O)N[C@@H](CCN2CCCCC2)CC(=O)NC2CCC2)nn1C1CCCC1 [compound 397, (3S)-N-cyclobutyl-3-({1-cyclopentyl-5-[2-(propan-2-yl)phenyl]-1H-pyrazol-3-yl}formamido)-5-(piperidin-1-yl)pentanamide] | 140 nM
COc1cccc(OC)c1-c1cc(C(=O)N[C@H](CC(=O)NC2CCC2)Cc2ccccc2)nn1CC(C)C [compound 321, (3S)-N-cyclobutyl-3-{[5-(2,6-dimethoxyphenyl)-1-(2-methylpropyl)-1H-pyrazol-3-yl]formamido}-4-phenylbutanamide] | 114 nM

Reference: patent US11535630B2, “Apelin receptor (APJ) agonists and uses thereof” (Research Triangle Institute, priority 2015, dated 2022)
